Experimental data published in patent US20250296932A1, “PHARMACEUTICAL COMPOSITIONS COMPRISING HIV INTEGRASE INHIBITORS” (priority 2024, published 2025).

Experiments:
[1] = system: HIV-1 (HXB2) site directed mutant Q148R; experiment: HIV-1 replication in MT-4 cells, INSTI resistant site-directed mutant Q148R; format: cell-based; conditions: 5 days, Cell Titer Glo, at least 3 independent experiments in quadruplicate
Protocol: (§1) The compound of Formula I, along with control compounds bictegravir and raltegravir, were tested in a high-throughput 384-well assay format for ability to inhibit the replication of HIV-1 (HXB2) in MT-4 cells. Compounds were serially diluted (1:3) in 10 ul DMSO on 384-well plates and then diluted 187-fold into complete RPMI media using the uFLow and Biomek FX. 0.4 uL of compound was added in quadruplicate to 384-well assay plates. Each plate contained 8 test compounds, plus DMSO negative and 5 uM AZT positive controls. 1 mL aliquots of 2M MT-4 cells were pre-infected for 1 hr, @ 37° C. with 25 uL (MT-4) of either RPMI (mock-infected) or a fresh 1:250 dilution of an HIV-1 (HXB2 WT or site directed mutants containing either single INSTI Mutations E92Q, Y143R, Q148R, N155H, or R263K or double mutations E92Q/N155H, E138K/Q148K, or G140S/Q148R) concentrated ABI stock. Infected and uninfected cells were diluted in RPMI and 35 uL containing 2000 MT-4 cells was added to each well of assay plates, using the uFLow and subsequently incubated for 5 days at 37° C. in an incubator set at 5% CO2 and 90% humidity. After 5 days, 22 uL Cell Titer Glo (Promega, Madison, WI, Cat #G7573) was added to the assay plates with a Biotek uFlow Workstation. Plates were subsequently placed on a Perkin Elmer Envision Plate Reader for 5 minutes before the luminescence signal was read. EC50 values were defined as the compound concentration that causes a 50 decrease in luminescence signal, a measure of HIV-1 replication, and were calculated in Accord (online tool) using a one-site dose-response model to generate sigmoidal curve fits. Fold shifts for mutant viruses were obtained by calculating EC50 values relative to the HXB2 WT control.
(§2) The mean fold change values (relative to WT) are from at least 3 independent experiments assayed in quadruplicate.

[2] = system: HIV-1 (HXB2) site directed mutant N155H; experiment: HIV-1 replication in MT-4 cells, INSTI resistant site-directed mutant N155H; format: cell-based; conditions: 5 days, Cell Titer Glo, at least 3 independent experiments in quadruplicate
Protocol: as §1, §2

[3] = system: HIV-1 (HXB2) site directed mutant G140S/Q148R; experiment: HIV-1 replication in MT-4 cells, INSTI resistant site-directed mutant G140S/Q148R; format: cell-based; conditions: 5 days, Cell Titer Glo, at least 3 independent experiments in quadruplicate
Protocol: as §1, §2

[4] = system: HIV-1 (HXB2) site directed mutant R263K; experiment: HIV-1 replication in MT-4 cells, INSTI resistant site-directed mutant R263K; format: cell-based; conditions: 5 days, Cell Titer Glo, at least 3 independent experiments in quadruplicate
Protocol: as §1, §2

[5] = system: HIV-1 (HXB2) site directed mutant E92Q; experiment: HIV-1 replication in MT-4 cells, INSTI resistant site-directed mutant E92Q; format: cell-based; conditions: 5 days, Cell Titer Glo, at least 3 independent experiments in quadruplicate
Protocol: as §1, §2

[6] = system: HIV-1 (HXB2) site directed mutant E92Q/N155H; experiment: HIV-1 replication in MT-4 cells, INSTI resistant site-directed mutant E92Q/N155H; format: cell-based; conditions: 5 days, Cell Titer Glo, at least 3 independent experiments in quadruplicate
Protocol: as §1, §2

[7] = system: HIV-1 (HXB2) site directed mutant Y143R; experiment: HIV-1 replication in MT-4 cells, INSTI resistant site-directed mutant Y143R; format: cell-based; conditions: 5 days, Cell Titer Glo, at least 3 independent experiments in quadruplicate
Protocol: as §1, §2

[8] = system: HIV-1 (HXB2) site directed mutant E138K/Q148K; experiment: HIV-1 replication in MT-4 cells, INSTI resistant site-directed mutant E138K/Q148K; format: cell-based; conditions: 5 days, Cell Titer Glo, at least 3 independent experiments in quadruplicate
Protocol: as §1, §2

[9] = system: PI-resistant (PI-r) HIV-1 mutants (HXB2-based viruses encoding protease mutations 150V, 184V+L90M, G48V+V82A+L90M, G48V+V82S); experiment: Antiviral potency against panel of HIV-1 mutants: PI-resistant; format: cell-based; conditions: relative to WT; at least three experiments run in triplicate; controls: PIs (DRV, ATV)
Protocol: (§3) The human T-lymphoblastoid MT-2 and SupTI cell lines were obtained from the NIH AIDS Reagent Program (Germantown, MD) and maintained in RPMI-1640 medium supplemented with 10% heat-inactivated fetal bovine serum, 100 units/mL penicillin, and 10 μg/mL streptomycin (complete RPMI media). Cells were passaged twice per week and kept at densities less than 800,000 cells per mL. Adherent HEK293T cells were obtained from the Gladstone Institute for Virology and Immunology (San Francisco, CA) and maintained at densities below 80% confluency in Dulbecco's Modified Eagle Medium (DMEM) (Gibco) supplemented with 10% heat-inactivated FBS, 100 units/mL penicillin, and 10 μg/mL streptomycin (complete DMEM media). Unless otherwise noted, HIV-1 recombinant strains carrying mutations were prepared by transfecting infectious proviral pLAI-based or pHXB2-based cDNA clones into MT-2 cells and harvesting the cell supernatants. The NNRTI-resistant HXB2-based viruses encoding reverse transcriptase (RT) mutations (K103N, Y181C, Y188L, L100I+K103N, and G190A) were constructed by site-directed mutagenesis. The NRTI-resistant LAI-based viruses encoding RT mutations K65R, M184V, and M41L+T215Y were constructed by site-directed mutagenesis. […].
(§4) The EC50 fold change range is the mean±standard deviation from at least three experiments run in triplicate. […]

[10] = system: NNRTI-resistant (NNRTI-r) HIV-1 mutants (HXB2-based viruses encoding RT mutations K103N, Y181C, Y188L, L100I+K103N, G190A); experiment: Antiviral potency against panel of HIV-1 mutants: NNRTI-resistant; format: cell-based; conditions: relative to WT; at least three experiments run in triplicate; control: NNRTI (EFV)
Protocol: as §3, §4

[11] = system: CAI-resistant (CAI-r) HIV-1 reporter viruses encoding capsid mutations (L56I, N57H, M66I, K70N, Q67H+N74D, Q67H+T107N); experiment: Antiviral potency against panel of HIV-1 mutants: CAI-resistant single cycle reporter viruses; format: cell-based; conditions: relative to WT; at least three experiments run in triplicate; control: CAI (LEN)
Protocol: as §3, §4

[12] = system: NRTI-resistant (NRTI-r) HIV-1 mutants (LAI-based viruses encoding RT mutations K65R, M184V, M41L+T215Y); experiment: Antiviral potency against panel of HIV-1 mutants: NRTI-resistant; format: cell-based; conditions: relative to WT; at least three experiments run in triplicate; controls: NRTIs (TAF, FTC)
Protocol: as §3, §4

[13] = Hygroscopicity by dynamic vapor sorption (DVS) of crystalline forms, salts and co-crystals; format: physicochemical
Protocol: Hygroscopicity was studied using dynamic vapor sorption (DVS, TA Q5000 SA, TA Instruments, New Castle, DE or DVS, DVS Intrinsic, Surface Measurement Systems, London, UK). […] The water sorption and desorption were studied as a function of relative humidity (RH) at 25° C. […] Data analysis was performed using Universal Analysis 2000 Version 4.7A (TA Instruments, New Castle, DE) for TA DVS runs and Microsoft Excel for SMS DVS runs.

Row | SMILES | Mean EC50 Fold Change (relative to WT), Q148R [1] [fold] | Mean EC50 Fold Change (relative to WT), N155H [2] [fold] | Mean EC50 Fold Change (relative to WT), G140S/Q148R [3] [fold] | Mean EC50 Fold Change (relative to WT), R263K [4] [fold] | Mean EC50 Fold Change (relative to WT), E92Q [5] [fold] | Mean EC50 Fold Change (relative to WT), E92Q/N155H [6] [fold] | Mean EC50 Fold Change (relative to WT), Y143R [7] [fold] | Mean EC50 Fold Change (relative to WT), E138K/Q148K [8] [fold] | EC50 Fold Change, Range, PI-r [9] | EC50 Fold Change, Range, NNRTI-r [10] | EC50 Fold Change, Range, CAI-r [11] | EC50 Fold Change, Range, NRTI-r [12] | form of the material post DVS experiment ([13]; after DVS sorption/desorption at 25° C.) | water absorbed (DVS) ([13]; up to 95% RH at 25° C.)
1 | O=C(NCc1c(F)cc(F)cc1F)c1cn2c(c(O)c1=O)C(=O)N1[C@H]3CC[C@H](C3)O[C@@H]1C2 [Bictegravir] | 0.7 | 1.3 | 2.1 | 1.9 | 1.6 | 1.2 | 1.8 | 4.4 |  |  |  |  |  | 
2 | C[C@@H]1C=C[C@H](C)N2CN1n1cc(C(=O)NCc3c(F)cc(F)cc3F)c(=O)c(O)c1C2=O [Compound of Formula I, (1S,2R,5S)-8-hydroxy-2,5-dimethyl-7,9-dioxo-N-(2,4,6-trifluorobenzyl)-2,5,7,9-tetrahydro-1,6-methanopyrido[1,2-b][1,2,5]triazonine-10-carboxamide] | 1.0 | 1.9 | 5.5 | 2.0 | 2.7 | 1.8 | 2.5 | 9.5 | 0.4-1.3 fold | 0.7-2.4 fold | 0.8-1.2 fold | 0.4-0.8 fold |  | 
3 | C[C@@H]1C=C[C@H](C)N2CN1n1cc(C(=O)NCc3c(F)cc(F)cc3F)c(=O)c(O)c1C2=O [Compound of Formula I, Form I, (1S,2R,5S)-8-hydroxy-2,5-dimethyl-7,9-dioxo-N-(2,4,6-trifluorobenzyl)-2,5,7,9-tetrahydro-1,6-methanopyrido[1,2-b][1,2,5]triazonine-10-carboxamide] |  |  |  |  |  |  |  |  |  |  |  |  | not have changed form | about 0.15%
4 | Cc1nnc(C(=O)NC(C)(C)c2nc(C(=O)NCc3ccc(F)cc3)c(O)c(=O)n2C)o1 [Raltegravir] | 16 | 6.1 | 108 | 1.1 | 4.8 | 58 | 18 | 6.5 |  |  |  |  |  | 
